In patent US9006450B2 (Boehringer Ingelheim International GmbH, priority 2010, dated 2015):

Target: T1, human ACC2 (Homo sapiens, UniProt O00763)
T1 construct: made in house; host or cells: insect cells (baculoviral expression system)
Assay: ACC2 assay, spectrophotometric 384 well assay (NADH-linked, coupled lactate dehydrogenase/pyruvate kinase)
Assay type: biochemical
Details: ACC2 assay, hACC2 construct lacking 128 N-terminal amino acids, 25° C., 340 nm; read-out: IC50
Method in brief: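 ADP output tracked via pyruvate kinase/lactate dehydrogenase NADH oxidation, slope at 340 nm over 15 min, 25° C, with 500 μM ATP and 200 μM each acetyl-CoA and NADH. Enzyme: insect-cell-expressed human ACC2, N-terminal 128 residues deleted; pH 7.5 Tris with citrate, KHCO3. IC50 from four-parameter regression versus vehicle and no-acetyl-CoA controls.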

T1 sequence (O00763 129-2458 limits assumed): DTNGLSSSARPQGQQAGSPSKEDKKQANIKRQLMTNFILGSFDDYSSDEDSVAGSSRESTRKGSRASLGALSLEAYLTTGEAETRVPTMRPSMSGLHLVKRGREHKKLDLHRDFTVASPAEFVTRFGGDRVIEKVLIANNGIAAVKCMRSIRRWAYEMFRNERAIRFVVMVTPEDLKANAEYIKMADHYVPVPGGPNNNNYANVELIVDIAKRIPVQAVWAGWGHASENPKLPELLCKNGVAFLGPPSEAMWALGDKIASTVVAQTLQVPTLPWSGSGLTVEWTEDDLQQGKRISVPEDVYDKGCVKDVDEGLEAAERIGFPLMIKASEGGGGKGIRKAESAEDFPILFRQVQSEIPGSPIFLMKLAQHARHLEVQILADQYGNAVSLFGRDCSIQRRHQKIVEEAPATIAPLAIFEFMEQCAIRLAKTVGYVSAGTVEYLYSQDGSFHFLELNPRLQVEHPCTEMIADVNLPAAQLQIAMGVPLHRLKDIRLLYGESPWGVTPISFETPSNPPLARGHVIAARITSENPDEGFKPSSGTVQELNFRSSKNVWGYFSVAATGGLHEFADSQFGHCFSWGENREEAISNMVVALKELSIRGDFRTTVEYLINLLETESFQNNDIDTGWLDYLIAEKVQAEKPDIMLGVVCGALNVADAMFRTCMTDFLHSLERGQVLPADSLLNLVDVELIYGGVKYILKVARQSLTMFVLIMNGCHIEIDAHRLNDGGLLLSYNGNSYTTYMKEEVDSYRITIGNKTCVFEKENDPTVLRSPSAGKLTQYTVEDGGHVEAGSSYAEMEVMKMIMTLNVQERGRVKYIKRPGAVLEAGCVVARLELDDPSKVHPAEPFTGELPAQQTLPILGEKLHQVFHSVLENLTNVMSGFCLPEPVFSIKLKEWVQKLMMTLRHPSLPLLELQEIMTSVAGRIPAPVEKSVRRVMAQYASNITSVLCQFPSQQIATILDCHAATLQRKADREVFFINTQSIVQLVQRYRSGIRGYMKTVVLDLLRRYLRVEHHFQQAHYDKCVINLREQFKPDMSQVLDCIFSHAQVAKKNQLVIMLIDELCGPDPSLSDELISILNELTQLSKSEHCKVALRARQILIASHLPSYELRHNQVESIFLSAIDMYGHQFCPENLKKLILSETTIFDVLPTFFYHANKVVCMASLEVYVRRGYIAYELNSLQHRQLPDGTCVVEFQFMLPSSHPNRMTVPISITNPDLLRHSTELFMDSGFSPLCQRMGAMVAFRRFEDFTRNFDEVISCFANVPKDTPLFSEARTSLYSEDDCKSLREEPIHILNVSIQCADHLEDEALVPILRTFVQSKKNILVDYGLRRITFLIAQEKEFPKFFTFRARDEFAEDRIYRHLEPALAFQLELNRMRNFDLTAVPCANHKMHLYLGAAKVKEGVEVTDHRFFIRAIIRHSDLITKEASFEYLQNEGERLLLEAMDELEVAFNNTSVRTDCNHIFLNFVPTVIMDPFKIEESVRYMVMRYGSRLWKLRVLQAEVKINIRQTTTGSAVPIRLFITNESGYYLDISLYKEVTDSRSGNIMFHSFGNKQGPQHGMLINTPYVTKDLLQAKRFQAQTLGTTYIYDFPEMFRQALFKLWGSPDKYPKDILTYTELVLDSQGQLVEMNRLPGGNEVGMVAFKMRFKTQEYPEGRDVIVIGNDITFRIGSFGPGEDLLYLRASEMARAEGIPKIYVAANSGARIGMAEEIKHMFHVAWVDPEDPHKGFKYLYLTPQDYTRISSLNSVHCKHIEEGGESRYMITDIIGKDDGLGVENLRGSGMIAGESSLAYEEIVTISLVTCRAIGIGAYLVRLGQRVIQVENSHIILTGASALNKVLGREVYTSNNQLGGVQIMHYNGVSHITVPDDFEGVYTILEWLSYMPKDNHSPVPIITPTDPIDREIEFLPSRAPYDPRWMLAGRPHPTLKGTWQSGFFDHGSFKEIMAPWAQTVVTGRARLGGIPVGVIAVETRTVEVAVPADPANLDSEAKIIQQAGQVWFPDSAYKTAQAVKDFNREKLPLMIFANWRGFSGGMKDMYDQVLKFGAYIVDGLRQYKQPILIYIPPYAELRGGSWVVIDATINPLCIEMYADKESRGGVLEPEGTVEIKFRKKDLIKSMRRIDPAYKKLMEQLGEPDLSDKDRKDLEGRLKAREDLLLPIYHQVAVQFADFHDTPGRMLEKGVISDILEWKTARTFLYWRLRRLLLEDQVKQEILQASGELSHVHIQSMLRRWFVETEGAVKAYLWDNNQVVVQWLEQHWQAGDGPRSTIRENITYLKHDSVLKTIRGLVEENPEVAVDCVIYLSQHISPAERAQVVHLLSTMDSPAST

| IC50 [nM] | Structure (SMILES) |
| --- | --- |
| 230 | CC(=O)N[C@@H](C)c1ccc(C2CCN(c3ncc(-c4ccc5ncccc5c4)cn3)CC2)cc1 [Example 10.70] |
| 150 | CC(=O)N[C@@H](C)c1ccc(C2CCN(c3ncc(C4=CCCCC4)cn3)CC2)cc1 [Example 10.71] |
| 1200 | CC(=O)N[C@@H](C)c1ccc(C2CCN(c3ncc(-c4cccn4C)cn3)CC2)cc1 [Example 10.72] |
| 180 | CC(=O)N[C@@H](C)c1ccc(C2CCN(c3ncc(-c4ccc5nccnc5c4)cn3)CC2)cc1 [Example 10.73] |
| 1200 | CC(=O)N[C@@H](C)c1ccc(C2CCN(c3ncc(-c4cnc(Br)n4C)cn3)CC2)cc1 [Example 10.74] |
| 50 | CC(=O)N[C@@H](C)c1ccc(C2CCN(c3ncc(-c4ccc5sccc5c4)cn3)CC2)cc1 [Example 10.75] |
| 110 | CC(=O)N[C@@H](C)c1ccc(C2CCN(c3ncc(-c4ccc(Cl)c(C)c4)cn3)CC2)cc1 [Example 10.76] |
| 1600 | CSc1ccc(-c2cnc(N3CCC(c4ccc([C@H](C)NC(C)=O)cc4)CC3)nc2)c(C(F)(F)F)c1 [Example 10.77] |
| 200 | CC(=O)N[C@@H](C)c1ccc(C2CCN(c3ncc(-c4ccc(O)c(Cl)c4)cn3)CC2)cc1 [Example 10.78] |
| 1100 | CC(=O)N[C@@H](C)c1ccc(C2CCN(c3ncc(-c4cncc(C#N)c4)cn3)CC2)cc1 [Example 10.79] |
| 140 | CC(=O)N[C@@H](C)c1ccc(C2CCN(c3ncc(-c4cccc(C#N)c4)cn3)CC2)cc1 [Example 10.80] |
| 10400 | CC(=O)N[C@@H](C)c1ccc(C2CCN(c3ncc(-c4ccc(N(C)C)nc4)cn3)CC2)cc1 [Example 10.81] |
| 150 | CC(=O)N[C@@H](C)c1ccc(C2CCN(c3ncc(-c4ccc(C#N)nc4)cn3)CC2)cc1 [Example 10.82] |
| 1900 | CC(=O)N[C@@H](C)c1ccc(C2CCN(c3ncc(-c4cnc(C#N)nc4)cn3)CC2)cc1 [Example 10.83] |
| 1300 | CC(=O)N[C@@H](C)c1ccc(C2CCN(c3ncc(C4=CCOCC4)cn3)CC2)cc1 [Example 10.84] |
| 2600 | CC(=O)N[C@@H](C)c1ccc(C2CCN(c3ncc(-c4ccc(C(F)(F)F)nc4)cn3)CC2)cc1 [Example 10.85] |
| 5900 | CC(=O)N[C@@H](C)c1ccc(C2CCN(c3ncc(-c4ccc5[nH]ncc5c4)cn3)CC2)cc1 [Example 10.86] |
| 70 | CC(=O)N[C@@H](C)c1ccc(C2CCN(c3ncc(-c4ccc5c(c4)OCO5)cn3)CC2)cc1 [Example 10.87] |
| 30 | CC(=O)N[C@@H](C)c1ccc(C2CCN(c3ncc(-c4ccc5occc5c4)cn3)CC2)cc1 [Example 10.88] |
| 350 | CC(=O)N[C@@H](C)c1ccc(C2CCN(c3ncc(-c4ccc5c(c4)CCCO5)cn3)CC2)cc1 [Example 10.90] |
| 170 | CC(=O)N[C@@H](C)c1ccc(C2CCN(c3ncc(-c4coc5ccccc45)cn3)CC2)cc1 [Example 10.91] |
| 370 | CC(=O)N[C@@H](C)c1ccc(C2CCN(c3ncc(-c4cccc5c4OCC5)cn3)CC2)cc1 [Example 10.92] |
| 4300 | CC(=O)N[C@@H](C)c1ccc(C2CCN(c3ncc(C4=CCC5(CC4)OCCO5)cn3)CC2)cc1 [Example 10.93] |
| 2300 | CC(=O)N[C@@H](C)c1ccc(C2CCN(c3ncc(-c4cccnc4C)cn3)CC2)cc1 [Example 10.94] |
| 2000 | CC(=O)N[C@@H](C)c1ccc(C2CCN(c3ncc(-c4cnccc4C)cn3)CC2)cc1 [Example 10.95] |
| 600 | CC(=O)N[C@@H](C)c1ccc(C2CCN(c3ncc(-c4ccco4)cn3)CC2)cc1 [Example 10.96] |

| IC50 [nM] | Structure (SMILES) |
| --- | --- |
| 8200 | CC(=O)N[C@@H](C)c1ccc(C2CCN(c3ncc(-c4ccccc4CC#N)cn3)CC2)cc1 [Example 10.97] |
| 900 | C[C@H](NC(=O)C1CC1)c1ccc(C2CCN(c3ncc(-c4ccc5c(c4)CCO5)cn3)CC2)cc1 [Example 10.98] |
| 380 | C[C@H](NC(=O)N(C)C)c1ccc(C2CCN(c3ncc(-c4ccc5c(c4)CCO5)cn3)CC2)cc1 [Example 10.99] |
| 90 | Cc1cccc(-c2cnc(N3CCC(c4ccc([C@H](C)NC(=O)C5CC5)cc4)CC3)nc2)c1 [Example 10.100] |
| 80 | C[C@H](NC(=O)C1CC1)c1ccc(C2CCN(c3ncc(-c4ccc(F)cc4)cn3)CC2)cc1 [Example 10.101] |
| 240 | C[C@H](NC(=O)C1CC1)c1ccc(C2CCN(c3ncc(-c4ccc(C#N)cc4)cn3)CC2)cc1 [Example 10.102] |
| 560 | C[C@H](NC(=O)C1CC1)c1ccc(C2CCN(c3ncc(-c4ccccc4F)cn3)CC2)cc1 [Example 10.103] |
| 170 | C[C@H](NC(=O)C1CC1)c1ccc(C2CCN(c3ncc(-c4ccoc4)cn3)CC2)cc1 [Example 10.104] |
| 100 | C[C@H](NC(=O)C1CC1)c1ccc(C2CCN(c3ncc(-c4ccccc4)cn3)CC2)cc1 [Example 10.105] |
| 110 | Cc1cccc(-c2cnc(N3CCC(c4ccc([C@H](C)NC(=O)N(C)C)cc4)CC3)nc2)c1 [Example 10.107] |
| 90 | C[C@H](NC(=O)N(C)C)c1ccc(C2CCN(c3ncc(-c4ccc(F)cc4)cn3)CC2)cc1 [Example 10.108] |
| 90 | C[C@H](NC(=O)N(C)C)c1ccc(C2CCN(c3ncc(-c4ccc(C#N)cc4)cn3)CC2)cc1 [Example 10.109] |
| 430 | C[C@H](NC(=O)N(C)C)c1ccc(C2CCN(c3ncc(-c4ccccc4F)cn3)CC2)cc1 [Example 10.110] |
| 170 | C[C@H](NC(=O)N(C)C)c1ccc(C2CCN(c3ncc(-c4ccccc4)cn3)CC2)cc1 [Example 10.111] |
| 120 | Cc1ccc(-c2cnc(N3CCC(c4ccc([C@H](C)NC(=O)N(C)C)cc4)CC3)nc2)cc1 [Example 10.112] |
| 530 | C[C@H](NC(=O)N(C)C)c1ccc(C2CCN(c3ncc(-c4ccoc4)cn3)CC2)cc1 [Example 10.113] |
| 410 | CC(=O)N[C@@H](C)c1ccc(C2CCN(c3ncc(-c4ccc5cc[nH]c5c4)cn3)CC2)cc1 [Example 10.114] |
| 410 | COc1ccc2[nH]c(-c3cnc(N4CCC(c5ccc([C@H](C)NC(C)=O)cc5)CC4)nc3)cc2c1 [Example 10.115] |
| 460 | CC(=O)N[C@@H](C)c1ccc(C2CCN(c3ncc(-c4cc5ccc(C)cc5[nH]4)cn3)CC2)cc1 [Example 10.116] |
| 680 | CC(=O)N[C@@H](C)c1ccc(C2CCN(c3ncc(-c4cc5cc(C#N)ccc5[nH]4)cn3)CC2)cc1 [Example 10.117] |
| 150 | CC(=O)N[C@@H](C)c1ccc(C2CCN(c3ncc(-c4cccc5cc[nH]c45)cn3)CC2)cc1 [Example 10.118] |
| 310 | CC(=O)N[C@@H](C)c1ccc(C2CCN(c3ncc(-c4cc5ccccc5[nH]4)cn3)CC2)cc1 [Example 10.119] |
| 740 | CC(=O)N[C@@H](C)c1ccc(C2CCN(c3ncc(-c4cccc5[nH]ccc45)cn3)CC2)cc1 [Example 10.120] |
| 110 | CC(=O)N[C@@H](C)c1ccc(C2CCN(c3ncc(-c4ccc(C)cn4)cn3)CC2)cc1 [Example 10.121] |
| 150 | CC(=O)N[C@@H](C)c1ccc(C2CCN(c3ncc(-c4cc(C)ccn4)cn3)CC2)cc1 [Example 10.122] |
| 420 | CC(=O)N[C@@H](C)c1ccc(C2CCN(c3ncc(-c4cccc(CC#N)c4)cn3)CC2)cc1 [Example 10.123] |
